Test [1] deals with interaction between PD-1 and PD-L1 expressed on cell surfaces (Homo sapiens (Human), UniProt Q9NZQ7). Description: Jurkat reporter gene cellular assay (Jurkat/NF-κB-luc/PD1 cells cocultured with Raji-PD-L1 cells, OKT-3 stimulation). Conditions: NF-κB-luc reporter activation fold, 6 hrs; read-out: Cell Activity EC50. The format is cell-based. In a few lines: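 EC50 comes from non-linear regression of activation fold (compound reading over DMSO reading) against concentration. Read-out was luciferase signal 6 h after OKT-3-stimulated coculture of PD-1/NF-κB-luc Jurkat cells with PD-L1-expressing Raji cells, 5*10^4 cells each per well.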
Sequence of interaction between PD-1 and PD-L1 expressed on cell surfaces (Q9NZQ7 19-290): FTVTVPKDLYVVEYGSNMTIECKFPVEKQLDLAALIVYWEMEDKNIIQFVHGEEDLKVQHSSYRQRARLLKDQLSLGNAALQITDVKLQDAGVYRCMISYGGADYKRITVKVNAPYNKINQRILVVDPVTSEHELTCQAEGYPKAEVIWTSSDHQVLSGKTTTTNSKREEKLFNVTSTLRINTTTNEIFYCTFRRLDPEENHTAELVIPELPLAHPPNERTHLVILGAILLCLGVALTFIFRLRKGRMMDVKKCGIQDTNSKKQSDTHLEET
In general terms: In a reporter assay the amount or activity of a reporter protein is the signal.

In test [2] the target is interaction between PD-1 and PD-L1 (Homo sapiens (Human), UniProt Q9NZQ7). Description: PD1-PDL1 HTRF binding activity test (Cisbio PD-1/PD-L1 binding assay kit). The conditions noted are these: read-out: PD1-PDL1 HTRF Binding Activity IC50.
Sequence of interaction between PD-1 and PD-L1 (Q9NZQ7 19-238): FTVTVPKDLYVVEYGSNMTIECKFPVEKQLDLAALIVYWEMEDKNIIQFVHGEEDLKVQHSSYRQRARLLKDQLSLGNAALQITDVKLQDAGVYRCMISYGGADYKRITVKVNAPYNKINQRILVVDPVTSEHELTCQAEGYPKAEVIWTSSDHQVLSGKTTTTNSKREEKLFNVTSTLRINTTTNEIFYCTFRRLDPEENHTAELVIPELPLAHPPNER

Some results are limits rather than exact numbers.

With `CCOC(=O)C[C@H](NCc1cnc(C(=O)Nc2cccc(-c3cccc(NC(=O)c4cc(C5CC5)c(CN[C@@H](CC(=O)OCC)C(=O)OCC)cn4)c3C)c2C)cc1C1CC1)C(=O)OCC` [Example 115, tetraethyl 2,2′-((((((2,2′-dimethyl-[1,1′-biphenyl]-3,3′-diyl)bis(azanediyl))bis(carbonyl))bis(4-cyclopropylpyridine-6,3-diyl))bis(methylene))bis(azanediyl)) (2S,2′S)-disuccinate], the 50% effective concentration (EC50) (usually the concentration at which the effect is half-maximal) in test [1] was above 10000 nM. For the same compound, the half-inhibitory concentration (IC50) (as a rule, the concentration that gives 50% inhibition) in test [2] was above 400 nM.
The corresponding values for `Cc1c(NC(=O)c2cc(C3CC3)c(CN[C@@H](CC(=O)O)C(=O)O)cn2)cccc1-c1cccc(NC(=O)c2cc(C3CC3)c(CN[C@@H](CC(=O)O)C(=O)O)cn2)c1C` [Example 116, (2S,2′S)-2,2′-((((((2,2′-dimethyl-[1,1′-biphenyl]-3,3′-diyl)bis(azanediyl))bis(carbonyl))bis(4-cyclopropylpyridine-6,3-diyl))bis(methylene))bis(azanediyl))disuccinic acid] are 1340 nM and 0.94 nM.
The corresponding values for `CCOC(=O)C[C@@H](NCc1cnc(C(=O)Nc2cccc(-c3cccc(NC(=O)c4cc(C5CC5)c(CN[C@H](CC(=O)OCC)C(=O)OCC)cn4)c3C)c2C)cc1C1CC1)C(=O)OCC` [Example 117, tetraethyl 2,2′-((((((2,2′-dimethyl-[1,1′-biphenyl]-3,3′-diyl)bis(azanediyl))bis(carbonyl))bis (4-cyclopropylpyridine-6,3-diyl))bis (methylene))bis(azanediyl))(2R,2′R)-disuccinate] are above 10000 nM and above 400 nM.
On to `Cc1c(NC(=O)c2cc(C3CC3)c(CN[C@H](CC(=O)O)C(=O)O)cn2)cccc1-c1cccc(NC(=O)c2cc(C3CC3)c(CN[C@H](CC(=O)O)C(=O)O)cn2)c1C` [Example 118, (2R,2′R)-2,2′-((((((2,2′-dimethyl-[1,1′-biphenyl]-3,3′-diyl)bis(azanediyl))bis(carbonyl))bis (4-cyclopropylpyridine-6,3-diyl))bis (methylene))bis(azanediyl))disuccinic acid], for which the EC50 in test [1] stood at 1040 nM. The 50% inhibitory concentration (IC50) in test [2] stood at 1.17 nM.
In the same order, the values of `CCOC(=O)C(NCc1cnc(C(=O)Nc2cccc(-c3cccc(NC(=O)c4cc(C5CC5)c(CNC(C(=O)OCC)C(=O)OCC)cn4)c3C)c2C)cc1C1CC1)C(=O)OCC` [Example 119, tetraethyl 2,2′-((((((2,2′-dimethyl-[1,1′-biphenyl]-3,3′-diyl)bis(azanediyl))bis(carbonyl))bis(4-cyclopropylpyridine-6,3-diyl))bis(methylene))bis(azanediyl))dimalonate] are above 10000 nM and above 400 nM.
The corresponding values for `Cc1c(NC(=O)c2cc(C3CC3)c(CNC(C(=O)O)C(=O)O)cn2)cccc1-c1cccc(NC(=O)c2cc(C3CC3)c(CNC(C(=O)O)C(=O)O)cn2)c1C` [Example 120, 2,2′-((((((2,2′-dimethyl-[1,1′-biphenyl]-3,3′-diyl)bis(azanediyl))bis(carbonyl))bis (4-cyclopropylpyridine-6,3-diyl))bis (methylene))bis(azanediyl))dimalonic acid] are 1760 nM and 1.43 nM.
`CCOC(=O)CNCc1cnc(C(=O)Nc2cccc(-c3cccc(NC(=O)c4cc(C5CC5)c(CNCC(=O)OCC)cn4)c3C)c2C)cc1C1CC1` [Example 121, diethyl 2,2′-((((((2,2′-dimethyl-[1,1′-biphenyl]-3,3′-diyl)bis(azanediyl))bis(carbonyl))bis(4-cyclopropylpyridine-6,3-diyl))bis(methylene))bis(azanediyl)) diacetate]: the EC50 in test [1] was determined as 1340 nM. For the same compound, the IC50 in test [2] is 16.6 nM.
Consider `Cc1c(NC(=O)c2cc(C3CC3)c(CNCC(=O)O)cn2)cccc1-c1cccc(NC(=O)c2cc(C3CC3)c(CNCC(=O)O)cn2)c1C` [Example 122, 2,2′-((((((2,2′-dimethyl-[1,1′-biphenyl]-3,3′-diyl)bis(azanediyl))bis(carbonyl))bis(4-cyclopropylpyridine-6,3-diyl))bis(methylene))bis(azanediyl)) diacetic acid], for which, in test [1], the concentration for a half-maximal effect (EC50) stood at 19 nM. Moreover, the half-maximal inhibitory concentration (IC50) in test [2] was 1.14 nM.
For the compound `CCOC(=O)[C@H](C)NCc1cnc(C(=O)Nc2cccc(-c3cccc(NC(=O)c4cc(C5CC5)c(CN[C@@H](C)C(=O)OCC)cn4)c3C)c2C)cc1C1CC1` [Example 123], the EC50 in test [1] was determined as 2410 nM. In addition, the half-maximal inhibitory concentration (IC50) in test [2] is 22 nM.
In the same order, the values of `Cc1c(NC(=O)c2cc(C3CC3)c(CN[C@@H](C)C(=O)O)cn2)cccc1-c1cccc(NC(=O)c2cc(C3CC3)c(CN[C@@H](C)C(=O)O)cn2)c1C` [Example 124, (2S,2S)-2,2′-((((((2,2′-dimethyl-[1,-1′-biphenyl]-3,3′-diyl)bis(azanediyl))bis (carbonyl))bis(4-cyclopropylpyridine-6,3-diyl))bis(methylene))bis(azanediyl)) dipropionic acid] are 14.7 nM and 1.09 nM.
The corresponding values for `CCOC(=O)[C@@H](NCc1cnc(C(=O)Nc2cccc(-c3cccc(NC(=O)c4cc(C5CC5)c(CN[C@H](C(=O)OCC)C(C)C)cn4)c3C)c2C)cc1C1CC1)C(C)C` [Example 125, diethyl 2,2′-((((((2,2′-dimethyl-[1,1′-biphenyl]-3,3′-diyl)bis(azanediyl))bis(carbonyl))bis(4-cyclopropylpyridine-6,3-diyl))bis(methylene))bis(azanediyl)) (2S,2′S)-bis(3-methylbutanoate)] are above 10000 nM and above 2000 nM.
In the same order, the values of `Cc1c(NC(=O)c2cc(C3CC3)c(CN[C@H](C(=O)O)C(C)C)cn2)cccc1-c1cccc(NC(=O)c2cc(C3CC3)c(CN[C@H](C(=O)O)C(C)C)cn2)c1C` [Example 126, (2S,2S)-2,2-((((((2,2′-dimethyl-[1,1′-biphenyl]-3,3′-diyl)bis(azanediyl))bis (carbonyl))bis(4-cyclopropylpyridine-6,3-diyl))bis(methylene))bis(azanediyl)) bis(3-methylbutanoic acid)] are 64 nM and 1.11 nM.
Consider `CCOC(=O)C1(NCc2cnc(C(=O)Nc3cccc(-c4cccc(NC(=O)c5cc(C6CC6)c(CNC6(C(=O)OCC)CC6)cn5)c4C)c3C)cc2C2CC2)CC1` [Example 127, diethyl 1,1′-((((((2,2′-dimethyl-[1,1′-biphenyl]-3,3′-diyl)bis(azanediyl))bis(carbonyl))bis(4-cyclopropylpyridine-6,3-diyl))bis(methylene))bis(azanediyl)) bis(cyclopropane-l-carboxylate)], for which, in test [1], the 50% effective concentration (EC50) is above 10000 nM. The 50% inhibitory concentration (IC50) in test [2] was 113 nM.
In the same order, the values of `Cc1c(NC(=O)c2cc(C3CC3)c(CNC3(C(=O)O)CC3)cn2)cccc1-c1cccc(NC(=O)c2cc(C3CC3)c(CNC3(C(=O)O)CC3)cn2)c1C` [Example 128, 1,1′-((((((2,2′-dimethyl-[1,1′-biphenyl]-3,3-diyl)bis(azanediyl))bis(carbonyl))bis (4-cyclopropylpyridine-6,3-diyl))bis (methylene))bis(azanediyl))bis (cyclopropane-1-carboxylic acid)] are 77.8 nM and 1.32 nM.
In the case of `CCOC(=O)CN(C)Cc1cnc(C(=O)Nc2cccc(-c3cccc(NC(=O)c4cc(C5CC5)c(CN(C)CC(=O)OCC)cn4)c3C)c2C)cc1C1CC1` [Example 129], the EC50 in test [1] was above 10000 nM. Besides, the IC50 in test [2] turned out to be 102 nM.
For `Cc1c(NC(=O)c2cc(C3CC3)c(CN(C)CC(=O)O)cn2)cccc1-c1cccc(NC(=O)c2cc(C3CC3)c(CN(C)CC(=O)O)cn2)c1C` [Example 130, 2,2′-((((((2,2′-dimethyl-[1,1′-biphenyl]-3,3′-diyl)bis(azanediyl))bis (carbonyl))bis(4-cyclopropylpyridine-6,3-diyl))bis(methylene))bis (methylazanediyl))diacetic acid], the EC50 in test [1] came out at 600 nM. Moreover, the half-maximal inhibitory concentration (IC50) in test [2] amounted to 0.99 nM.
For the compound `COC(=O)[C@@H]1CCN(Cc2cnc(C(=O)Nc3cccc(-c4cccc(NC(=O)c5cc(C6CC6)c(CN6CC[C@@H](C(=O)OC)C6)cn5)c4C)c3C)cc2C2CC2)C1` [Example 131, dimethyl 1,1′-(((((2,2′-dimethyl-[1,1′-biphenyl]-3,3′-diyl)bis(azanediyl))bis (carbonyl))bis(4-cyclopropylpyridine-6,3-diyl))bis(methylene))(3R,3′R)-bis (pyrrolidine-3-carboxylate)], in test [1], the EC50 came out at 2580 nM. Besides, the half-maximal inhibitory concentration (IC50) in test [2] worked out at 21.8 nM.
Take `Cc1c(NC(=O)c2cc(C3CC3)c(CN3CC[C@@H](C(=O)O)C3)cn2)cccc1-c1cccc(NC(=O)c2cc(C3CC3)c(CN3CC[C@@H](C(=O)O)C3)cn2)c1C` [Example 132, (3R,3′R)-1,1′-(((((2,2′-dimethyl-[1,1′-biphenyl]-3,3′-diyl)bis(azanediyl))bis (carbonyl))bis(4-cyclopropylpyridine-6,3-diyl))bis(methylene))bis(pyrrolidine-3-carboxylic acid)]: the EC50 in test [1] came to 23.1 nM. Further, the IC50 in test [2] stood at 0.2 nM.
In the same order, the values of `COC(=O)[C@H]1CCN(Cc2cnc(C(=O)Nc3cccc(-c4cccc(NC(=O)c5cc(C6CC6)c(CN6CC[C@H](C(=O)OC)C6)cn5)c4C)c3C)cc2C2CC2)C1` [Example 133, dimethyl 1,1′-(((((2,2′-dimethyl-[1,1′-biphenyl]-3,3′-diyl)bis(azanediyl))bis (carbonyl))bis(4-cyclopropylpyridine-6,3-diyl))bis(methylene))(3S,3′S)-bis (pyrrolidine-3-carboxylate)] are 1900 nM and 11.8 nM.
For the compound `Cc1c(NC(=O)c2cc(C3CC3)c(CN3CC[C@H](C(=O)O)C3)cn2)cccc1-c1cccc(NC(=O)c2cc(C3CC3)c(CN3CC[C@H](C(=O)O)C3)cn2)c1C` [Example 134, (3S,3′S)-1,1′-(((((2,2′-dimethyl-[1,1′-biphenyl]-3,3′-diyl)bis(azanediyl))bis (carbonyl))bis(4-cyclopropylpyridine-6,3-diyl))bis(methylene))bis(pyrrolidine-3-carboxylic acid)], in test [1], the concentration giving a half-maximal response (EC50) worked out at 21 nM. The half-inhibitory concentration (IC50) in test [2] worked out at 0.82 nM.

These data come from patent publication US11459339B2, “Biaryl derivative, preparation method thereof and pharmaceutical application thereof” (Abbisko Therapeutics Co., Ltd., priority 2018, dated 2022).
